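Five concentrations, 48 hours, 96-well plates. GI50 is the concentration that inhibits growth by half.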 The source made the active and inactive calls. Rule as the data show it: active = GI50 up to about 1.1 µM and inactive = higher.
Key:
Assay in all cases: NCI anticancer screen, dose series, 48 h
U-251 = test system: U-251
PC-3 = test system: PC-3
ACHN = test system: ACHN
SNB-75 = test system: SNB-75
HCT-15 = test system: HCT-15
UACC-62 = test system: UACC-62
SK-OV-3 = test system: SK-OV-3
EKVX = test system: EKVX
SF-268 = test system: SF-268
HOP-62 = test system: HOP-62
A498 = test system: A498
MOLT-4 = test system: MOLT-4
SF-539 = test system: SF-539
HCT-116 = test system: HCT-116
IGROV-1 = test system: IGROV-1
SR = test system: SR
MDA-N = test system: MDA-N
TK-10 = test system: TK-10
UO-31 = test system: UO-31
MCF7 = test system: MCF7
CAKI-1 = test system: CAKI-1
Hs-578T = test system: Hs-578T
CCRF-CEM = test system: CCRF-CEM
UACC-257 = test system: UACC-257
T47D = test system: T47D
NCI/ADR-RES = test system: NCI/ADR-RES
KM12 = test system: KM12
NCI-H522 = test system: NCI-H522
DU-145 = test system: DU-145
HT-29 = test system: HT-29
HOP-92 = test system: HOP-92
A549 = test system: A549
SF-295 = test system: SF-295
M14 = test system: M14
NCI-H460 = test system: NCI-H460
OVCAR-5 = test system: OVCAR-5
HCC 2998 = test system: HCC 2998
NCI-H23 = test system: NCI-H23
OVCAR-4 = test system: OVCAR-4
SW-620 = test system: SW-620
OVCAR-3 = test system: OVCAR-3
LOX IMVI = test system: LOX IMVI
OVCAR-8 = test system: OVCAR-8
SK-MEL-5 = test system: SK-MEL-5
BT-549 = test system: BT-549
SK-MEL-2 = test system: SK-MEL-2
786-0 = test system: 786-0
COLO 205 = test system: COLO 205
K562 = test system: K562
MDA-MB-435 = test system: MDA-MB-435
SN12C = test system: SN12C
RXF 393 = test system: RXF 393
HL-60 = test system: HL-60
Malme-3M = test system: Malme-3M
SNB-19 = test system: SNB-19

In the case of `CC[C@@]1(C[C@H]2C[C@@]3(C(=O)OC)c4[nH]c5ccccc5c4CCN3C2=S)COC2(CCCCC2)O1`, the GI50 (U-251) is reported as 3.75 µM (inactive), the GI50 (PC-3) is reported as 4.97 µM (inactive) and the GI50 (ACHN) is reported as 45.8 µM (inactive). For the same molecule, the GI50 (SNB-75) was 17.8 µM (inactive), the GI50 (HCT-15) was 5.57 µM and the GI50 (UACC-62) was 11.3 µM (inactive). The GI50 (SK-OV-3) was > 100 µM (inactive), the GI50 (EKVX) was 58.9 µM (inactive) and the GI50 (SF-268) was 62.5 µM (inactive). The GI50 (HOP-62) was 22.2 µM (inactive), the GI50 (A498) was 88.7 µM (inactive) and the GI50 (MOLT-4) was 6.15 µM (inactive). The GI50 (SF-539) was > 100 µM (inactive), the GI50 (HCT-116) was 6.92 µM (inactive) and the GI50 (IGROV-1) was 61.7 µM (inactive). For the same molecule, the GI50 (SR) was 4.44 µM (inactive), the GI50 (MDA-N) was 66.8 µM (inactive) and the GI50 (TK-10) was 11.2 µM (inactive). For the same molecule, the GI50 (UO-31) was 7.78 µM (inactive), the GI50 (MCF7) was 33.3 µM (inactive) and the GI50 (CAKI-1) was > 100 µM (inactive). The GI50 (Hs-578T) was 10.6 µM (inactive), the GI50 (CCRF-CEM) was 7.23 µM (inactive) and the GI50 (UACC-257) was 26.5 µM (inactive). The GI50 (T47D) was 26.2 µM (inactive), the GI50 (NCI/ADR-RES) was 57 µM (inactive) and the GI50 (KM12) was 4.47 µM (inactive). For the same molecule, the GI50 (NCI-H522) was 59.2 µM (inactive), the GI50 (DU-145) was > 100 µM (inactive) and the GI50 (HT-29) was 16.7 µM (inactive). For the same molecule, the GI50 (HOP-92) was 2.62 µM (inactive), the GI50 (A549) was 54.6 µM (inactive) and the GI50 (SF-295) was 22 µM (inactive). The GI50 (M14) was 23.7 µM (inactive), the GI50 (NCI-H460) was 5.78 µM (inactive) and the GI50 (OVCAR-5) was > 100 µM (inactive). For the same molecule, the GI50 (HCC 2998) was 15.2 µM (inactive), the GI50 (NCI-H23) was 21.4 µM (inactive) and the GI50 (OVCAR-4) was > 100 µM (inactive). The GI50 (SW-620) was 3.13 µM (inactive), the GI50 (OVCAR-3) was 55.7 µM (inactive) and the GI50 (LOX IMVI) was 78 µM (inactive). For the same molecule, the GI50 (OVCAR-8) was > 100 µM (inactive), the GI50 (SK-MEL-5) was 3.12 µM (inactive) and the GI50 (BT-549) was 4.72 µM (inactive). For the same molecule, the GI50 (SK-MEL-2) was > 100 µM (inactive), the GI50 (786-0) was > 100 µM (inactive) and the GI50 (COLO 205) was 7.41 µM (inactive). For the same molecule, the GI50 (K562) was 5.48 µM (inactive), the GI50 (MDA-MB-435) was 5.09 µM (inactive) and the GI50 (SN12C) was > 100 µM (inactive). The GI50 (RXF 393) was 59.6 µM (inactive), the GI50 (HL-60) was 4.06 µM (inactive) and the GI50 (Malme-3M) was > 100 µM (inactive). The GI50 (SNB-19) was 38.5 µM (inactive).

Reference: ChEMBL document CHEMBL1201862, “PubChem BioAssay data set” (2004)
